Laboratory results from BindingDB's records for doi:10.1021/jm800325y (National Taiwan University, 2008).

Target: T1, Geranylgeranyl pyrophosphate synthase (Homo sapiens, UniProt O95749)
T1 sequence (O95749 whole entry): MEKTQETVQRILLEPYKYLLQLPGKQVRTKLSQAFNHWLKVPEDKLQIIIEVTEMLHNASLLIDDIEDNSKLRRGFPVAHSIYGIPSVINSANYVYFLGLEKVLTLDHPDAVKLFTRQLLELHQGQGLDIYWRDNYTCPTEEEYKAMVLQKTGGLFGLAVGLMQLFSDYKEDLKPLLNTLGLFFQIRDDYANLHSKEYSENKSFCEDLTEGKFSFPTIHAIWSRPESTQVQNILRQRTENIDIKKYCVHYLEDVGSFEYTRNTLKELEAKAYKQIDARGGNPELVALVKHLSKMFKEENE
Experiment: GGPP Synthase Inhibition Assay
Conditions: pH 7; 37 °C
Experimental: The inhibitory activity of each test compound was evaluated by monitoring the formation of [14C]GGPP from FPP, using [14C]IPP as the substrate. To confirm the formation of radioactive products, one-dimensional thin-layer chromatography (TLC), with autoradiographic detection of [14C]FPP/[14C]GGPP, was used.

| SMILES | IC50 [µM] |
| --- | --- |
| CCCCCCCCc1ccc[n+](CC(O)(P(=O)([O-])O)P(=O)(O)O)c1 (configuration not stated) [1-(2-hydrogenphosphonato-2-hydroxy-2-phosphonoethyl)-3-octylpyridin-1-ium] | 1.38 |
| CCCCCCCCCC(O)(P(=O)(O)O)P(=O)(O)O [(1-hydroxy-1-phosphonodecyl)phosphonic acid] | 0.89 |
